# What was measured:
# FAM83F = FAM83F (Homo sapiens, UniProt Q8NEG4); experiment: TMT proteomics H9 hESC: FAM83F abundance; assay type: cell-based; details: H9 hES cells, 5 h vs DMSO; thalidomide 10 µM, lenalidomide 5 µM, pomalidomide 1 µM
# Description: (§1) We established a mass spectrometry-based workflow (Figure 1—figure supplement 1A) to detect IMiD-induced protein degradation in hESC.
# (§2) Proteins were precipitated using methanol/chloroform.
# SALL4 [1] = biological target: T1, SALL4 (Homo sapiens, UniProt Q9UJQ4); experiment: TMT proteomics Kelly cells: SALL4 abundance; details: 5 h vs DMSO, thalidomide 10 µM, lenalidomide 5 µM, pomalidomide 1 µM
# ZBTB39 [2] = biological target: T2, ZBTB39 (Homo sapiens, UniProt O15060+Q96SW2); experiment: TMT proteomics H9 hESC: ZBTB39 abundance; assay type: cell-based; details: H9 hES cells, 5 h vs DMSO; thalidomide 10 µM, lenalidomide 5 µM, pomalidomide 1 µM
# Description: as §1, §2
# [3] = biological target: hsSALL4ZnF2 / DDB1∆B-CRBN (Homo sapiens, UniProt Q96SW2+Q9UJQ4); experiment: TR-FRET IMiD-dependent binding of SALL4ZnF2 to CRBN; details: DDB1∆B-CRBN 200 nM, hsSALL4ZnF2 100 nM
# Description: The TR-FRET signal of each data point was extracted by calculating the 520/490 nm ratios.
# SALL4 [4] = biological target: T1, SALL4; details: Kelly cells
# SALL4 [5] = biological target: T1, SALL4; experiment: TMT proteomics H9 hESC: SALL4 abundance; assay type: cell-based; details: H9 hES cells, 5 h vs DMSO; thalidomide 10 µM, lenalidomide 5 µM, pomalidomide 1 µM
# Description: as §1, §2
# [6] = typical dose 200–400 mg thalidomide, 25 mg lenalidomide, 2 mg pomalidomide, ref Chen et al., 2017, Hoffmann et al., 2013, Teo et al., 2004, cited from earlier work
# RTN4 = experiment: Rescue proteomics SK-N-DZ cells: RTN4 abundance; details: 1 µM pomalidomide, 5 h vs DMSO, rescue experiment (source data 13)
# [7] = tested on: HIST1H4A; HIST1H4F; HIST1H4D; HIST1H4J; HIST2H4A; HIST2H4B; HIST1H4H; HIST1H4C; HIST4H4; HIST1H4E; HIST1H4I; HIST1H4B; HIST1H4K; HIST1H4L; experiment: Rescue proteomics SK-N-DZ cells: histone H4 abundance; details: 1 µM pomalidomide, 5 h vs DMSO, rescue experiment (source data 13)
# SALL4 [8] = experiment: Western blot of SALL4 in CRBN-/- Kelly and HEK293T cells; assay type: cell-based, human; details: increasing concentrations, 24 h
# RAB28 [9] = biological target: T3, RAB28 (Homo sapiens, UniProt P51157); experiment: TMT proteomics SK-N-DZ cells: RAB28 abundance; details: 5 h vs DMSO, pomalidomide 1 µM, lenalidomide 5 µM, CC-220 0.1 µM, dBET57 1 µM
# VRTN = biological target: T4, VRTN (Homo sapiens, UniProt Q9H8Y1); experiment: TMT proteomics H9 hESC: VRTN abundance; assay type: cell-based; details: H9 hES cells, 5 h vs DMSO; thalidomide 10 µM, pomalidomide 1 µM
# T4 construct: endogenous in cells; host or cells: H9 hESC
# Description: as §1, §2
# [10] = tested on: IMiD-dependent neo-substrates; experiment: TMT proteomics profiling of IMiD-dependent neo-substrates (hESC, Kelly, SK-N-DZ, MM1s); assay type: cell-based, human
# Description: as §1, §2
# ZFP91 [11] = biological target: T5, ZFP91 (Homo sapiens, UniProt Q96JP5+Q96SW2); experiment: TMT proteomics MM1s cells: ZFP91 abundance; details: 5 h vs DMSO, thalidomide 10 µM, lenalidomide 5 µM, pomalidomide 1 µM
# ZFP91 [12] = biological target: T5, ZFP91; experiment: TMT proteomics Kelly cells: ZFP91 abundance; details: 5 h vs DMSO, thalidomide 10 µM, lenalidomide 5 µM, pomalidomide 1 µM
# DTWD1 = DTWD1 (Homo sapiens, UniProt Q8N5C7+Q96SW2); experiment: TMT proteomics H9 hESC: DTWD1 abundance; assay type: cell-based; details: H9 hES cells, 5 h vs DMSO; thalidomide 10 µM, lenalidomide 5 µM, pomalidomide 1 µM
# Description: as §1, §2
# GZF1 = GZF1 (Homo sapiens, UniProt Q96SW2+Q9H116); experiment: TMT proteomics SK-N-DZ cells: GZF1 abundance; details: 5 h vs DMSO, pomalidomide 1 µM, lenalidomide 5 µM, CC-220 0.1 µM, dBET57 1 µM
# ARPP19 = experiment: TMT proteomics Kelly cells: ARPP19 abundance; details: 5 h vs DMSO, pomalidomide 1 µM
# SQRDL; SQOR = experiment: TMT proteomics MM1s cells: SQRDL abundance; details: 5 h vs DMSO, pomalidomide 1 µM
# ILF3 = experiment: Rescue proteomics SK-N-DZ cells: ILF3 abundance; details: 1 µM pomalidomide, 5 h vs DMSO, rescue experiment (source data 13)
# IKZF3 = IKZF3 (Homo sapiens, UniProt Q96SW2+Q9UKT9); experiment: TMT proteomics MM1s cells: IKZF3 abundance; details: 5 h vs DMSO, thalidomide 10 µM, lenalidomide 5 µM, pomalidomide 1 µM
# GAP43 = experiment: Rescue proteomics SK-N-DZ cells: GAP43 abundance; details: 1 µM pomalidomide, 5 h vs DMSO, rescue experiment (source data 13)
# SALL4 [13] = biological target: T1, SALL4; experiment: Western blot of SALL4 in Kelly, SK-N-DZ, HEK293T and H661 cells; details: increasing concentrations, 24 h
# ZFP91 [14] = biological target: T5, ZFP91; experiment: TMT proteomics SK-N-DZ cells: ZFP91 abundance; details: 5 h vs DMSO, pomalidomide 1 µM, lenalidomide 5 µM, CC-220 0.1 µM, dBET57 1 µM
# COX5A = experiment: TMT proteomics Kelly cells: COX5A abundance; details: 5 h vs DMSO, pomalidomide 1 µM
# ZNF98 = ZNF98 (Homo sapiens, UniProt A6NK75+Q96SW2); experiment: TMT proteomics SK-N-DZ cells: ZNF98 abundance; details: 5 h vs DMSO, pomalidomide 1 µM, lenalidomide 5 µM, CC-220 0.1 µM, dBET57 1 µM
# SALL4 [15] = biological target: T1, SALL4; experiment: Western blot of SALL4 in H9 hESC; assay type: cell-based; parameters: endogenous in cells; host or cells: Kelly, H9 hESC, SK-N-DZ cells; details: increasing doses, 24 h
# RAB28 [16] = biological target: T3, RAB28; experiment: TMT proteomics MM1s cells: RAB28 abundance; details: 5 h vs DMSO, thalidomide 10 µM, lenalidomide 5 µM, pomalidomide 1 µM
# ZBTB39 [17] = biological target: T2, ZBTB39; experiment: TMT proteomics SK-N-DZ cells: ZBTB39 abundance; details: 5 h vs DMSO, pomalidomide 1 µM, lenalidomide 5 µM, CC-220 0.1 µM, dBET57 1 µM
# mmSALL4 = biological target: T6, mmSALL4 (Mus musculus, UniProt Q8BX22); experiment: Western blot of mmSALL4 in mouse embryonic stem cells; assay type: cell-based; details: increasing concentrations, 24 h
# T6 construct: endogenous in cells; host or cells: TC1 mouse embryonic stem cells
# IKZF1 = IKZF1 (Homo sapiens, UniProt Q13422+Q96SW2); experiment: TMT proteomics MM1s cells: IKZF1 abundance; details: 5 h vs DMSO, thalidomide 10 µM, lenalidomide 5 µM, pomalidomide 1 µM
# CLIC4 = experiment: TMT proteomics Kelly cells: CLIC4 abundance; details: 5 h vs DMSO, pomalidomide 1 µM
# TLN2 = experiment: Rescue proteomics SK-N-DZ cells: TLN2 abundance; details: 1 µM pomalidomide, 5 h vs DMSO, rescue experiment (source data 13)
# T4 sequence (Q9H8Y1 whole entry): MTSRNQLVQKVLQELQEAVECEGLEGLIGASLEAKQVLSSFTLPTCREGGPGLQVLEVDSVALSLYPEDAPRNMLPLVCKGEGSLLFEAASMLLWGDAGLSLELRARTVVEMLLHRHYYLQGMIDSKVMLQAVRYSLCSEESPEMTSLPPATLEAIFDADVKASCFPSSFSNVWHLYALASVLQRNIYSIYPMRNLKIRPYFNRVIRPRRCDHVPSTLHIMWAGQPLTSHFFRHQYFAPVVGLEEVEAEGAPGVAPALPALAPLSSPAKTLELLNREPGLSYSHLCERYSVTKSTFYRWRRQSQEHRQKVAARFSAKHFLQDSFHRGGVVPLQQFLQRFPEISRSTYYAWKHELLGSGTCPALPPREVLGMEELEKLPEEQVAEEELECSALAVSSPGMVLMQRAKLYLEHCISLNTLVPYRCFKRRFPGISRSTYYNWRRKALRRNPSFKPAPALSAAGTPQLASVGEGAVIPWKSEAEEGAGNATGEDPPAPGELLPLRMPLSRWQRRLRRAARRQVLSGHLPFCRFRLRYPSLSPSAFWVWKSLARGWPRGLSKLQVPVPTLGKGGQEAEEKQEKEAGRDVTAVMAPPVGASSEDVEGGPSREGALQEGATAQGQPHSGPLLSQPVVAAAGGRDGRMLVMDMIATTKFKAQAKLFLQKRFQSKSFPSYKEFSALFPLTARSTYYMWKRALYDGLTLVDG
# T6 sequence (Q8BX22 whole entry): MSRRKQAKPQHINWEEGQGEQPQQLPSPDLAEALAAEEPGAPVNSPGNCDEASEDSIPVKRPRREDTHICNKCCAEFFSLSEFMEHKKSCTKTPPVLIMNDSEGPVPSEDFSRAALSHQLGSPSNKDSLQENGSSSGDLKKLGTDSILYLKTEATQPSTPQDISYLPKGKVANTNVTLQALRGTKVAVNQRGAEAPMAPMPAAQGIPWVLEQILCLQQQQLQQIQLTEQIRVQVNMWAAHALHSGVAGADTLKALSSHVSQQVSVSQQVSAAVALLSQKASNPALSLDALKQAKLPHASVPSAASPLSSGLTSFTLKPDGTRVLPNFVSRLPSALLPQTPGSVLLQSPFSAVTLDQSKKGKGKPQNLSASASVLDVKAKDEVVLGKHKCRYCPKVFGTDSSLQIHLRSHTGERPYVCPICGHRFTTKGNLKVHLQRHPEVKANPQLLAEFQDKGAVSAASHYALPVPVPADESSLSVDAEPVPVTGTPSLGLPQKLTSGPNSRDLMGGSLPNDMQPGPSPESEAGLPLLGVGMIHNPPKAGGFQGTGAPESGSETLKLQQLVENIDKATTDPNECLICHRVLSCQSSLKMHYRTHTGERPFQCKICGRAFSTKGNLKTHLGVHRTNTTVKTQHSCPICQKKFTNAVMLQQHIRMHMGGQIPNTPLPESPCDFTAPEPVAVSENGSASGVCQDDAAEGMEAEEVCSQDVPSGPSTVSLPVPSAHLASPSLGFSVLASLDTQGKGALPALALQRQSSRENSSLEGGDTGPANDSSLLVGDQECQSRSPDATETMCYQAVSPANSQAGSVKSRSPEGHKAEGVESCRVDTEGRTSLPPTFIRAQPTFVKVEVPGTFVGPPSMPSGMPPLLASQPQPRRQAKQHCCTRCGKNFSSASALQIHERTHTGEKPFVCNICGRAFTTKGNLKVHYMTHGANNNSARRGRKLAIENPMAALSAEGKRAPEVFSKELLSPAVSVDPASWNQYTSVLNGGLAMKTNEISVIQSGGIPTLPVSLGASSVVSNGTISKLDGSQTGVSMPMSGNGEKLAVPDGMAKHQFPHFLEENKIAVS
structure (smiles),measurement,setting,value
Nc1cccc2c1C(=O)N(C1CCC(=O)NC1=O)C2=O (stereo not shown) [pomalidomide],logFC FAM83F,FAM83F,-1.309
same,logFC SALL4,SALL4 [1],-1.873
same,logFC ZBTB39,ZBTB39 [2],-1.656
same,rank order in binding observed with ZnF2,[3],Pom >Thal >> Len
same,earliest time of SALL4 degradation post treatment,SALL4 [4]; 1 or 5 µM pomalidomide,4 h
same,time post washout at which SALL4 recovered to levels close to pre-treatment,SALL4 [4]; pomalidomide 8 h then washout,48 h
same,logFC SALL4,SALL4 [5],-1.645
same,plasma half-life (t1/2),[6],~ 9 h
same,Cmax,[6]; read-out: maximum plasma concentration (Cmax),50 nM
same,logFC RTN4,RTN4,-0.1703
same,logFC HIST1H4A (histone H4 genes),[7],-0.1522
same,SALL4 degradation in CRBN-/- cells,SALL4 [8],no degradation of SALL4 was observed
same,logFC RAB28,RAB28 [9],-1.455
same,logFC VRTN,VRTN,-0.4677
same,number of substrates identified (rank order),[10]; H9 hESC proteomics,Thal < Len << Pom
same,proteins degraded upon treatment (besides SALL4),"[10]; H9 hESC, 5 h, 5 µM lenalidomide, 1 µM pomalidomide","ZFP91 ([An et al., 2017]) and the largely uncharacterized proteins ZBTB39, FAM83F, WIZ, RAB28, and DTWD1"
same,substrates robustly degraded (each drug in addition to the preceding one),"[10]; proteomics across hESC, MM1s, Kelly, SK-N-DZ cells","ZBTB39, ZFP91, DTWD1, and ZNF653"
same,logFC ZFP91,ZFP91 [11],-1.964
same,logFC ZFP91,ZFP91 [12],-0.9865
same,logFC DTWD1,DTWD1,-1.822
same,logFC GZF1,GZF1,-0.5859
same,logFC ARPP19,ARPP19,0.611
same,logFC SQRDL; SQOR,SQRDL; SQOR,0.2873
same,logFC ILF3,ILF3,-0.0757
same,logFC IKZF3,IKZF3,-2.635
same,logFC GAP43,GAP43,-0.1693
same,SALL4 protein levels (western blot),SALL4 [13],dose-dependent decrease in SALL4 protein levels
same,logFC ZFP91,ZFP91 [14],-1.944
same,logFC COX5A,COX5A,0.352
same,logFC ZNF98,ZNF98,-1.487
same,SALL4 protein levels (western blot),SALL4 [15],dose-dependent decrease in protein levels
same,logFC RAB28,RAB28 [16],-1.819
same,logFC ZBTB39,ZBTB39 [17],-1.448
same,degradation of mmSALL4 in mESC,mmSALL4,does not promote degradation of mmSALL4
same,logFC IKZF1,IKZF1,-2.094
same,logFC CLIC4,CLIC4,-0.176
same,logFC TLN2,TLN2,-0.06109

# Reference: paper PMC6156078, “Thalidomide promotes degradation of SALL4, a transcription factor implicated in Duane Radial Ray syndrome” (eLife, 2018)
